The values that follow come from patent US20250091994A1, “RAS/RAF BINDING INHIBITOR COMPOUND” (NATIONAL UNIVERSITY CORPORATION KOBE UNIVERSITY, priority 2021, published 2025).

As usually defined, the inhibition is how much of the control response was suppressed.

Common to all, as to format: cell-based
Assay [1] deals with large bowel cancer cells SW480 (K-RasG12V). Nature of the assay: Cell growth inhibition, adherent cells SW480. The note with it: Homo sapiens, 72 hours, read-out: SW480 (KRasG12V) % inhibition at 10 μM. How it is done: (§1) The cell growth inhibitory activity of the compound of the present invention on human culture cells having active-type mutation in Ras was evaluated by the below-mentioned method using suspension cancer cells {acute lymphoblastic leukemia cells CCRF-CEM (K-RasG12D), promyelocytic leukemia cells HL60 (N-RasQ61L), acute lymphoblastic leukemia cells MOLT4 (N-RasG12C), and small cell lung cancer cells SHP77 (K-RasG12V)} and adherent cancer cells {large bowel cancer cells SW480 (K-RasG12V) and large bowel cancer cell SW620 (K-RasG12V)}.
(Case of adherent cells) The cells suspended in a medium containing 10% FBS (1 to 2×10^4 cells/well) were seeded on a 96-well plate, and were then cultured at 37° C. in the presence of […]. Thereafter, the medium was exchanged with a medium containing […], to which each compound solution (final DMSO concentration: […]) had been added, and the cells were then cultured at 37° C. in the presence of […] for 72 hours.
(§2) Thereafter, the number of viable cells was measured using Cell Counting Reagent (Nacalai Tesque) in accordance with the manufacturer's instructions. Inhibition by the test compound was determined according to the following equation: […]

Assay [2] relates to small cell lung cancer cells SHP77 (K-RasG12V). Nature of the assay: Cell growth inhibition, suspension cells SHP77. The following applies: Homo sapiens, 1 μM, 72 hours, read-out: SHP77 (KRasG12V) % inhibition at 1 μM. In outline: (§3)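 Suspension cells, 2 to 4×10^4 per well, cultured with compound in medium with 0.5% FBS (1% DMSO final) for 72 h at 37° C, 5% CO2. Viable cells counted with Cell Counting Reagent; inhibition calculated relative to controls.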

Assay [3] relates to phosphorylated MEK (pMEK) in HL60 cells. The experiment in a line: Ras-Raf signaling inhibition at culture cell level, pMEK. The following applies: Homo sapiens, HL-60; HL60 (N-RasQ61L), 1 μM test compound, 3 hours. How it is done:
(§4) The Ras-Raf signaling inhibitory activity of the compound of the present invention at a culture cell level was evaluated by the following method.
(§5) The HL60 cells described in Test Example 2 suspended in a medium containing 0.5% (v/v) FBS with each compound solution (final DMSO concentration: 1%), were seeded on a 12-well plate (2 to 4×10^5 cells/well), and the resulting mixture was then cultured at 37° C. in the presence of 5% CO2 for 3 hours.
(§6) After completion of the cell culture, proteins were extracted from the cells, using RIPA Buffer (Nacalai Tesque) containing a mixture of protease inhibitors and phosphatase inhibitors. An equivalent amount of protein was separated by standard SDS-PAGE and was then transferred onto a PVDF membrane. In order to detect the activation (phosphorylation) of MEK and ERK, downstream molecules of the Ras-Raf signaling pathway, the membrane was probed with 1000-fold diluted primary antibodies {phosphorylated MEK (pMEK: #9121), phosphorylated ERK (pERK: #9101), total MEK (tMEK: #9122), and total ERK (tERK: 9102); all from Cell signaling}, and then with a 1000-fold diluted horseradish peroxidase-labeled secondary antibody against rabbit immunoglobulin G. The immunoreactive signals were colored with EzWestLumi One (ATTO), and were then detected by Fusion FX (Vilber). Signal intensity was quantified by pixel counting. Inhibition by the test compound was determined according to the following equation: […]

In assay [4] the test system is phosphorylated ERK (pERK) in HL60 cells. Nature of the assay: Ras-Raf signaling inhibition at culture cell level, pERK. The note with it: Homo sapiens, HL-60; HL60 (N-RasQ61L), 1 μM test compound, 3 hours. How it is done: as §4, §5, §6
Assay [5] concerns Vemurafenib-resistant malignant melanoma cells A375R (BRafV600E). Nature of the assay: Cell growth inhibition, drug-resistant malignant melanoma A375R. The note with it: Homo sapiens, in the presence of 1 μM PLX (Vemurafenib), 72 hours. The protocol:
(§7) The human malignant melanoma cell lines A375 and HT 144, each having BRafV600E mutation, were cultured in a medium containing 10% FBS at 37° C. in the presence of 5% CO2. At the time point in which the cells became confluent, 1 μM Vemurafenib, a BRaf inhibitor, was added to the medium, and the cells were then cultured in the presence of Vemurafenib for 1 month or more (during which the medium was exchanged every 1 week), so as to acquire Vemurafenib-resistant malignant melanoma cells A375R and HT 144R. The resulting resistant cells were suspended in a medium containing 10% FBS, and then seeded on a 96-well plate to an amount of 1 to 2×10^4 cells/well. The cells were cultured at 37° C. in the presence of 5% CO2 overnight. Thereafter, the medium was exchanged with a medium containing 0.5% FBS, to which each compound solution (final DMSO concentration: 1%) and 1 μM Vemurafenib had been added, and the cells were then cultured at 37° C. in the presence of 5% CO2 for 72 hours.
as §2
(§8) Hereafter, Inhibition (%) by 3.3 μM compound is shown.

The subject of assay [6] is Vemurafenib-resistant malignant melanoma cells HT 144R (BRafV600E). The experiment in a line: Cell growth inhibition, drug-resistant malignant melanoma HT144R. The note with it: Homo sapiens, in the presence of 1 μM PLX (Vemurafenib), 72 hours. The protocol:
as §7, §2, §8

Assay [7] relates to acute lymphoblastic leukemia cells MOLT4 (N-RasG12C). The experiment in a line: Cell growth inhibition, suspension cells MOLT4. The note with it: Homo sapiens, MOLT-4; 3.3 μM (*), 72 hours; read-out: MOLT-4 (NRasG12C) % inhibition at 3.3 μM (*). The protocol: as §1
(Case of suspension cells) The cells suspended in a medium containing 0.5% (v/v) fetal bovine serum (FBS) and each compound solution (final DMSO concentration: 1%) were seeded on a 96-well plate (2 to 4×10^4 cells/well), and the resulting mixture was then cultured at 37° C. in the presence of 5% CO2 for 72 hours.
as §2

Assay [8] has as its system promyelocytic leukemia cells HL60 (N-RasQ61L). The experiment in a line: Cell growth inhibition, suspension cells HL60. The note with it: Homo sapiens, HL-60; 10 μM (***), 72 hours; read-out: HL-60 (NRasQ61L) % inhibition at 10 μM (***). Summed up: as §3
Assay [9] relates to acute lymphoblastic leukemia cells CCRF-CEM (K-RasG12D). The experiment in a line: Cell growth inhibition, suspension cells CCRF-CEM. The note with it: Homo sapiens, 1 μM, 72 hours, read-out: CCRF-CEM (KRasG12D) % inhibition at 1 μM. In outline:
as §3

Assay [10] relates to large bowel cancer cell SW620 (K-RasG12V). The experiment in a line: Cell growth inhibition, adherent cells SW620. The following applies: Homo sapiens, SW-620; 1 μM, 72 hours; read-out: SW620 (KRasG12V) % inhibition at 1 μM. Summed up: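 Adherent cells, 1 to 2×10^4 per well, grown overnight in 10% FBS, then exposed to compound in low-serum medium […] for 72 h at 37° C. Viable cells counted with Cell Counting Reagent; inhibition calculated relative to controls.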

`COc1cc(/C=C2/C(=O)c3ccccc3N2C(C)=O)ccc1OCC(N)=O` [Example 1, (Z)-2-(4-((1-acetyl-3-oxoindolin-2-ylidene)methyl)-2-methoxyphenoxy)-acetamide]: the inhibition at 10 µM came to 50% in assay [1] and 95% in [8]. Also, the inhibition at 1 µM was 73% in [2]; 30% in assay [3]; 61% in assay [4]; 51% in assay [9]; 53% in assay [10]. The inhibition at 3.3 µM was determined as 28% in assay [5], 66% in assay [6] and 88% in assay [7].
